Like-named read-outs stand apart in the source and are kept apart here.
How the values were obtained:
[1] = system: L1210 murine leukemia cell line; test: cell growth inhibition in a cytotoxic assay with L1210; type: cell-based
[2] = chemical reactivity/stability under acidic, basic and nucleophilic conditions; type: physicochemical
[3] = system: L1210 murine leukemia cell line; conditions: natural enantiomer; cited from earlier work
DNA = DNA alkylation in cell-free systems; type: biochemical
[4] = human plasma
[5] = system: L1210 murine leukemia cells; test: in vivo antitumor model, L1210 cells implanted ip into mice
[6] = system: L1210 murine leukemia cells; conditions: previously established; cited from earlier work

With CC(C)(C)OC(=O)N1C[C@@H](CCl)c2c1cc1c3c(cccc23)NC(=O)O1 [Compound 16, tert-Butyl 10-(Chloromethyl)-5-oxo-9,10-dihydro-4H-pyrrolo[3',2':5,6]naphtho[1,8-de][1,3]oxazine-8(5H)-carboxylate] the “fold less active than N-Boc-CBI” value ([1]; L1210, relative to N-Boc-CBI) was 50–100 fold, the “stability of cyclic carbamate to hydrolysis under acidic conditions” value ([2]; 1:1 TFA:CH2Cl2, 4 N HCl in EtOAc, 48 h at 23 °C) was “stable” and the “stability to nucleophiles BnSH and BnOH” value ([2]; 100 equiv in MeOH and THF at 23 °C for 48 h) was “completely stable”. For the same compound, the “stability to BnNH2 in MeOH” value ([2]; BnNH2 (100 equiv) in MeOH, 24 h) was “rapidly cleaved”, the “stability to BnNH2 in THF” value ([2]; BnNH2 in THF) was “stable” and the “hydrolysis of cyclic carbamate with NaHCO3” value ([2]; NaHCO3 in protic solvents) was “slowly hydrolyzed”. For the same compound, the “stability to organic bases” value ([2]; organic bases in aprotic solvents) was “stable”.

In the case of CC(C)(C)OC(=O)N1C[C@H]2C[C@@]23C1=CC(=O)c1ccccc13 [N-Boc-CBI], the IC50 [3] is listed as 80 nM.

In the case of Nc1cccc2c1C(=O)C=C1N(C(=O)c3cc4cc(NC(=O)c5cc6ccccc6[nH]5)ccc4[nH]3)CC3CC123 (racemic) [(±)-20, N-(2-(5-Amino-4-oxo-1,2,9,9a-tetrahydrocyclopropa[c]benzo[e]indole-2-carbonyl)-1H-indol-5-yl)-1H-indole-2-carboxamide], the “fold less active than 4 (active enantiomer of 20)” value ([1]; L1210, inferred for the active enantiomer from the racemate) is reported as 3–4 fold.

In the case of O=C1Nc2cccc3c4c(cc(c23)O1)N(C(=O)c1cc2cc(NC(=O)c3cc5ccccc5[nH]3)ccc2[nH]1)CC4CCl (centres unmarked) [Compound 6, N-(2-(10-(Chloromethyl)-5-oxo-5,8,9,10-tetrahydro-4H-pyrrolo[3',2':5,6]naphtho[1,8-de][1,3]oxazine-8-carbonyl)-1H-indol-5-yl)-1H-indole-2-carboxamide], the “times more potent than its N-Boc precursor 16” value ([1]; L1210, relative to 16) is reported as 100 to 1000 times, the “stability under acidic conditions” value ([2]; 1:1 TFA:CH2Cl2, 4 N HCl in EtOAc, up to 72 h at 23 °C) is reported as “stable” and the DNA alkylation (DNA) is reported as “incapable of alkylating DNA”. The free drug release [4] was 5%.

With O=C1Nc2cccc3c4c(cc(c23)O1)N(C(=O)c1cc2cc(NC(=O)c3cc5ccccc5[nH]3)ccc2[nH]1)CC4CCl (single isomer, unassigned; (+)) [(+)-6, N-(2-(10-(Chloromethyl)-5-oxo-5,8,9,10-tetrahydro-4H-pyrrolo[3',2':5,6]naphtho[1,8-de][1,3]oxazine-8-carbonyl)-1H-indol-5-yl)-1H-indole-2-carboxamide] the “long term cures (>250 days)” value ([5]; 9000 μg/kg ip on days 1, 5, 9) was 5/10 and the “antitumor activity over dose range” value ([5]; 300 to 9000 μg/kg ip on days 1, 5, 9 (30-fold range)) was “productive antitumor activity over the entire and much larger dose range examined”.

In the case of O=C(Nc1ccc2[nH]c(C(=O)N3C[C@H](CCl)c4c3cc(O)c3ccccc43)cc2c1)c1cc2ccccc2[nH]1 [Compound 4, seco-CBI-indole2], the IC50 ([1]; Mus musculus, L1210, L1210 cell line) is reported as 0.03 nM, the “T/C (percent survival)” value ([5]; 60 μg/kg ip on days 1, 5, 9) is reported as 197 and the “long term (250 days) survivors” value ([5]; 60 μg/kg ip on days 1, 5, 9) is reported as 1/10. The “toxicity (premature death of the animals)” value ([5]; doses of 100–500 μg/kg ip on days 1, 5, 9) was “toxic” and the optimal dose range [6] was 0.06 to 0.1 mg/kg.
